Test results: DBAASP
In brackets after ≈: the same amount, converted by molar mass. Each block holds one compound with its values, some of them ahead of it.

What was measured:
Test in all cases: ≥ marks a high value that may be exact or a test limit, other limits are often not marked, values filed in µg/mL are converted to µM
[1] = test system: Staphylococcus aureus UAMS-1
Staphylococcus aureus = test system: Staphylococcus aureus
Escherichia coli DC2 = test system: Escherichia coli DC2
Escherichia coli K-12 = test system: Escherichia coli K-12
[2] = test system: Escherichia coli ATCC 25922
[3] = test system: Batrachochytrium dendrobatidis JEL-197
[4] = test system: Micrococcus luteus MTCC 106
[5] = test system: Vibrio cholerae MTCC 3904
Escherichia coli = test system: Escherichia coli
[6] = test system: Staphylococcus epidermidis
[7] = test system: Salmonella enterica subsp. enterica serovar Paratyphi A
Listeria monocytogenes = test system: Listeria monocytogenes
[8] = test system: Staphylococcus aureus A170
[9] = test system: Staphylococcus aureus A172
[10] = test system: Staphylococcus aureus 007
[11] = test system: Lactococcus lactis AS1.1690
[12] = test system: Klebsiella pneumoniae subsp. pneumoniae CGMCC 1.176
[13] = test system: Staphylococcus aureus AS1.72
[14] = test system: Enterococcus faecium CGMCC 1.2334
Bacillus cereus AS1.126 = test system: Bacillus cereus AS1.126
[15] = test system: Proteus mirabilis CICC 22931
Escherichia coli AS1.349 = test system: Escherichia coli AS1.349
[16] = test system: Acinetobacter baumannii CICC 22934
[17] = test system: Klebsiella aerogenes CGMCC 1.876
[18] = test system: Pseudomonas aeruginosa CGMCC 1.860
[19] = test system: Enterococcus faecalis CGMCC 1.595
[20] = test system: Enterobacter cloacae CGMCC 1.58
Pseudomonas aeruginosa = test system: Pseudomonas aeruginosa
[21] = test system: Acinetobacter calcoaceticus
Streptococcus agalactiae = test system: Streptococcus agalactiae
Candida albicans = test system: Candida albicans
[22] = test system: Xanthomonas axonopodis pv. glycines ISBF 327
[23] = test system: Escherichia coli ATCC 51659
[24] = test system: Staphylococcus aureus ATCC 33592
[25] = test system: Acinetobacter baumannii ATCC BAA-1794
[26] = test system: Pseudomonas aeruginosa PAO1
[27] = test system: Cronobacter sakazakii DPC 6440
[28] = test system: Listeria monocytogenes LO28

SMILES: CC[C@H](C)[C@H](NC(=O)[C@H](CCCCN)NC(=O)[C@H](CCC(=O)O)NC(=O)[C@H](CCCCN)NC(=O)[C@H](CO)NC(=O)[C@H](CCCCN)NC(=O)[C@H](CCCN=C(N)N)NC(=O)[C@H](Cc1ccccc1)NC(=O)[C@H](Cc1ccccc1)NC(=O)[C@H](CC(=O)O)NC(=O)CNC(=O)[C@H](CC(C)C)NC(=O)[C@@H](N)CC(C)C)C(=O)NCC(=O)N[C@@H](CCCCN)C(=O)N[C@@H](CCC(=O)O)C(=O)N[C@@H](Cc1ccccc1)C(=O)N[C@@H](CCCCN)C(=O)N[C@@H](CCCN=C(N)N)C(=O)N[C@H](C(=O)N[C@H](C(=O)N[C@@H](CCC(N)=O)C(=O)N[C@@H](CCCN=C(N)N)C(=O)O)C(C)C)[C@@H](C)CC [LLGDFFRKSKEKIGKEFKRIVQR]
MIC [1]: ≥ 160 µM
MIC (Staphylococcus aureus): > 24 µM
MIC (Escherichia coli DC2): 9 µM (≈ 25.4 µg/mL)
MIC (Escherichia coli K-12): ≥ 160 µM

SMILES: CC(C)C[C@H](NC(=O)[C@H](Cc1cnc[nH]1)NC(=O)[C@@H](NC(=O)[C@H](CC(C)C)NC(=O)[C@@H]1CSSC[C@H](NC(=O)[C@H](CO)NC(=O)[C@H](Cc2ccccc2)NC(=O)[C@@H]2CCCN2C(=O)[C@@H](NC(=O)[C@@H]2CCCN2C(=O)[C@H](C)N)C(C)C)C(=O)N[C@@H]([C@@H](C)O)C(=O)N[C@@H](CCCN=C(N)N)C(=O)NCC(=O)N1)[C@@H](C)O)C(=O)N[C@H](C(=O)O)C(C)C [APVPFSCTRGCLTHLV]
MIC [4]: 6.3 µM (≈ 10.7 µg/mL)
MIC [5]: 25.4 µM (≈ 43.2 µg/mL)

SMILES: CC(C)C[C@H](NC(=O)CNC(=O)[C@H](Cc1ccccc1)NC(=O)[C@H](CCCN=C(N)N)NC(=O)[C@H](CCCN=C(N)N)NC(=O)[C@H](CC(C)C)NC(=O)[C@H](Cc1cnc[nH]1)NC(=O)[C@H](CCCN=C(N)N)NC(=O)CNC(=O)[C@@H](NC(=O)[C@H](C)NC(=O)[C@@H](N)CO)C(C)C)C(=O)N[C@@H](CCCN=C(N)N)C(=O)N[C@@H](CCCCN)C(=O)N[C@@H](Cc1cnc[nH]1)C(=O)N[C@@H](CCCN=C(N)N)C(=O)N[C@@H](CCCCN)C(=O)N[C@@H](Cc1cnc[nH]1)C(=O)O [SAVGRHLRRFGLRKHRKH]
MIC [11]: 18.8 µM (≈ 41.5 µg/mL)
MIC [12]: ≥ 100 µM
MIC [13]: 9.38 µM (≈ 20.7 µg/mL)
MIC [14]: 12.5 µM (≈ 27.6 µg/mL)
MIC (Bacillus cereus AS1.126): 6.25 µM (≈ 13.8 µg/mL)
MIC [15]: ≥ 100 µM
MIC (Escherichia coli AS1.349): ≥ 100 µM
MIC [16]: ≥ 100 µM
MIC [17]: ≥ 100 µM
MIC [18]: ≥ 100 µM
MIC [19]: 12.5 µM (≈ 27.6 µg/mL)
MIC [20]: ≥ 100 µM

SMILES: CC[C@H](C)[C@H](NC(=O)[C@H](C)NC(=O)[C@H](Cc1cnc[nH]1)NC(=O)[C@@H]1CCCN1C(=O)[C@@H](NC(=O)[C@H](CC(C)C)NC(=O)[C@H](CO)NC(=O)[C@H](CC(C)C)NC(=O)[C@@H](N)Cc1ccccc1)[C@@H](C)CC)C(=O)N[C@@H](CC(N)=O)C(=O)N[C@@H](C)C(=O)N[C@H](C(=O)N[C@@H](CO)C(=O)N[C@H](C(=O)N[C@@H](CC(C)C)C(=O)N[C@H](C(=O)N[C@@H](Cc1cnc[nH]1)C(=O)N[C@@H](Cc1cnc[nH]1)C(=O)N[C@@H](Cc1ccccc1)C(N)=O)C(C)C)[C@@H](C)O)C(C)C [FLSLIPHAINAVSTLVHHF]
MIC [2]: 15 µM (≈ 31.7 µg/mL)
MIC (Pseudomonas aeruginosa): 60.4 µM (≈ 128 µg/mL)
MIC [21]: 3.7 µM (≈ 7.83 µg/mL)
MIC (Staphylococcus aureus): 7.6 µM (≈ 16.1 µg/mL)
MIC (Streptococcus agalactiae): 1.9 µM (≈ 4.02 µg/mL)
MIC (Candida albicans): 15.1 µM (≈ 31.9 µg/mL)
MIC [22]: ≥ 121 µM

SMILES: CC(C)C[C@H](NC(=O)[C@H](CCCCN)NC(=O)[C@H](CCC(=O)O)NC(=O)[C@H](CCCCN)NC(=O)[C@@H](NC(=O)[C@H](CCCCN)NC(=O)[C@H](CCCCN)NC(=O)[C@H](Cc1ccccc1)NC(=O)[C@H](Cc1cnc[nH]1)NC(=O)[C@H](CCC(=O)O)NC(=O)[C@H](CO)NC(=O)[C@H](Cc1ccccc1)NC(=O)[C@H](Cc1c[nH]c2ccccc12)NC(=O)[C@H](CC(N)=O)NC(=O)[C@H](CCCN=C(N)N)NC(=O)[C@@H](NC(=O)[C@@H](N)CCCCN)[C@@H](C)O)C(C)C)C(=O)N[C@@H](CCCCN)C(=O)N[C@@H](CC(=O)O)C(=O)N[C@H](C(=O)N[C@@H](Cc1ccccc1)C(=O)N[C@@H](C)C(=O)O)[C@@H](C)O [KTRNWFSEHFKKVKEKLKDTFA]
MIC [23]: ≥ 90.3 µM
MIC [24]: ≥ 90.3 µM
MIC [25]: ≥ 90.3 µM
MIC [26]: > 90.3 µM

The remaining lines, values ahead:

MIC [2]: 14 µM (≈ 36.6 µg/mL)
MIC [3]: 20 µM (≈ 52.2 µg/mL)
SMILES: CC[C@H](C)[C@H](NC(=O)[C@H](CCCCN)NC(=O)[C@H](CCCCN)NC(=O)[C@H](CC(C)C)NC(=O)[C@@H](NC(=O)[C@H](CCC(N)=O)NC(=O)CNC(=O)[C@H](C)NC(=O)[C@@H](NC(=O)CNC(=O)[C@H](C)NC(=O)[C@@H](NC(=O)[C@@H](NC(=O)[C@@H]1CCCN1C(=O)[C@H](Cc1ccccc1)NC(=O)[C@@H](N)Cc1ccccc1)[C@@H](C)CC)C(C)C)C(C)C)C(C)C)C(=O)N[C@@H](Cc1ccc(O)cc1)C(=O)N[C@H]1CSSC[C@@H](C(=O)O)NC(=O)[C@H](CCCCN)NC(=O)[C@H](CCCCN)NC(=O)[C@H](CO)NC(=O)[C@H]([C@@H](C)CC)NC(=O)[C@H]([C@@H](C)O)NC1=O [FFPIVAGVAGQVLKKIYCTISKKC]

MIC (Escherichia coli): 11 µM (≈ 20 µg/mL)
MIC [6]: 3.86 µM (≈ 7 µg/mL)
MIC [7]: 11 µM (≈ 20 µg/mL)
MIC (Listeria monocytogenes): 5.52 µM (≈ 9.99 µg/mL)
MIC [8]: 11 µM (≈ 20 µg/mL)
MIC [9]: 13.8 µM (≈ 25 µg/mL)
MIC [10]: 5.52 µM (≈ 9.99 µg/mL)
SMILES: CC[C@H](C)[C@H](NC(=O)[C@@H]1CCCN1C(=O)[C@H](CC(C)C)NC(=O)[C@H](CC(C)C)NC(=O)[C@H](Cc1ccc(O)cc1)NC(=O)[C@H](CCCCN)NC(=O)[C@@H](N)CCCCN)C(=O)N[C@H](C(=O)NCC(=O)N[C@@H](CC(N)=O)C(=O)N[C@@H](CC(C)C)C(=O)N[C@@H](CC(C)C)C(=O)N[C@@H](CCCCN)C(=O)N[C@@H](CO)C(=O)N[C@@H](CC(C)C)C(=O)N[C@@H](CC(C)C)C(N)=O)C(C)C [KKYLLPIVGNLLKSLL]

MIC [27]: ≥ 156 µM
MIC [28]: ≥ 39.1 µM
SMILES: CC[C@H](C)[C@H](NC(=O)[C@@H](N)Cc1c[nH]c2ccccc12)C(=O)N[C@@H](CCC(N)=O)C(=O)N1CCC[C@H]1C(=O)N[C@@H](C)C(=O)N[C@H](C(=O)N[C@@H](CCCCN)C(=O)N[C@H](C(=O)N[C@H](C(=O)N1CCC[C@H]1C(=O)N[C@@H](Cc1ccc(O)cc1)C(=O)N[C@H](C(=O)N[C@@H](CCCN=C(N)N)C(=O)N[C@@H](Cc1ccc(O)cc1)C(=O)N[C@@H](CC(C)C)C(=O)O)C(C)C)[C@@H](C)CC)C(C)C)[C@@H](C)O [WIQPATKVIPYVRYL]
